Test results reported in patent US12138291B2, “Hemostatic composition and hemostatic method using hemostatic composition” (3-D MATRIX, LTD., priority 2015, dated 2024).

How the values were obtained:
[1] = tested on: bleeding site of the porcine liver; assay: Hemostasis of oozing bleeding created by abrading the porcine liver, usual application vs spray application; assay type: in vivo, pig; settings: for hemostasis outcome: peptide 1.5% (FIG. 9)
From the text: Oozing bleeding was created by abrading the porcine liver using a metal file. A self-organizing peptide solution was applied to the bleeding by usual application or spray application and evaluated for its hemostatic effect and applied amount.
• Animal species: pig • Breed: LWD • Sex: female • The number of animals introduced: 2 • Age in days at the time of introduction: any Body weight at the time of introduction: 50 kg Institute receiving the animals: Narita experimental laboratory of NAS Laboratory Co., Ltd. • Distributor of the animals: Ishige Tikusan • Acclimatization period: approximately 7 days after introduction • Quarantine: the absence of abnormalities was confirmed by quarantine under clinical observation at the time of introduction and during the acclimatization period. • Individual discrimination: ear tag <Rearing Conditions> (1) Rearing environment
Atropine sulfate was intramuscularly administered at 0.05 mg/kg (dosing volume: 0.1 mL/kg) to each animal. Approximately 30 minutes later, 20 mg/kg (dosing volume: 0.4 mL/kg) of ketamine hydrochloride and 4 mg/kg (dosing volume: 0.2 mL/kg) of xylazine hydrochloride were mixed and intramuscularly administered thereto. Each anesthetic was introduced by the intramuscular administration to the ear root using a disposable syringe (Terumo Corp.) attached with an 18 G injection needle (Terumo Corp.). Then, a tracheal tube (TOP intratracheal tube, TOP Corp.) was intubated, and the anesthesia was maintained with isoflurane using an inhalation anesthesia apparatus SUBARU-KJ02 (Mikasa Kantou Syoukai Co., Ltd.) and a mechanical ventilator (COMPOS β-EV, Metran Co., Ltd.). The perioperative isoflurane concentration was set to 1 to 3%, and the amount of oxygen was set to 2 L/min. The intrapulmonary pressure of the mechanical ventilator was set to 15 cm H2O, and the respiratory rate was set to 15 times/min. Each animal was placed supine on an operating table and covered with a sterilized drape.
• 1. Each completely anesthetized pig was laparotomized by abdominal midline incision using a surgical knife and an electric surgical knife to expose the liver. • 2. Oozing bleeding was created by abrading the liver using a metal file. • 3. Each test substance was applied to the bleeding inclined plane by usual application (*1) or spray application (*2). • 4. The time from after the end of application to the end of assessment of the completion of hemostasis was measured using a stopwatch (*3). The amount of each test substance used until the end of the test was recorded. • *1: A syringe was packed with the peptide solution (test substance), and the peptide solution was pushed out of a nozzle at the tip of the syringe and thereby applied to the subject (see the syringe of FIG. 1). • 2: A syringe (equivalent to that of FIG. 1) packed with the peptide solution (test substance) was loaded in a spray gun, and compressed air was blown to a nozzle at the tip of the syringe using a compressor so that the peptide solution pushed out of the nozzle was sprayed to the subject. The spray pressure was generally 0.5 to 1.5 [kgf/cm2], though differing depending on the viscosity of each test substance, the status of bleeding, and the distance to the application site. • 3: If bleeding was not weakened after initial application (if it was judged that this condition would not lead to hemostasis), additional application was appropriately performed. The time of completion of initial application was defined as the start of measurement, and the time of completion of hemostasis assessment was defined as the end of measurement. <Results>

[2] = Storage elastic modulus of peptide solutions before application (frequency sweep test); assay type: physicochemical; settings: shear stress 1 Pa
Procedure: Frequency sweep tests were conducted from 1 rad/sec to 10 rad/sec at a shear stress of 1 Pa, and the storage elastic modulus at 10 rad/sec was selected as data. As for a viscosity before gelling, tests were conducted for a soaking time of 2 min by loading each peptide solution between 20 mm plates with a gap distance of 500 um.

[3] = peptide concentrations of 1.5% or higher (1.5%, 2.0%, 2.5%)

| Sequence | amount of the solution applied until hemostasis, spray application group compared with usual application group ([1]; peptide concentration 1.0%) | hemostasis completion time, spray application group compared with usual application group ([1]; peptide concentration 1.0%) | amount of the solution applied until hemostasis, spray application group compared with usual application group ([1]; peptide concentration 1.5%) | hemostasis completion time, spray application group compared with usual application group ([1]; peptide concentration 1.5%) | Storage elastic modulus G′ (Pa) (mean: N = 3) ([2]; peptide 1.0% by weight, pH 3.0, at 10 rad/sec) | Storage elastic modulus G′ (Pa) (mean: N = 3) ([2]; peptide 1.5% by weight, pH 3.0, at 10 rad/sec) | amount of the solution applied until hemostasis, spray application group compared with usual application group [1, 3] | hemostasis completion time, spray application group compared with usual application group [1, 3] | Storage elastic modulus G′ (Pa) (mean: N = 3) ([2]; peptide 1.0% by weight, pH no treatment, at 10 rad/sec) | Storage elastic modulus G′ (Pa) (mean: N = 3) ([2]; peptide 1.5% by weight, pH no treatment, at 10 rad/sec) | Storage elastic modulus G′ (Pa) (mean: N = 3) ([2]; peptide 2.0% by weight, pH no treatment, at 10 rad/sec) | Storage elastic modulus G′ (Pa) (mean: N = 3) ([2]; peptide 2.5% by weight, pH no treatment, at 10 rad/sec) | hemostasis outcome ([1]; spray application) | hemostasis outcome ([1]; usual application) | Storage elastic modulus G′ (Pa) (mean: N = 3) ([2]; peptide 1.0% by weight, pH 7.5, at 10 rad/sec) | Storage elastic modulus G′ (Pa) (mean: N = 3) ([2]; peptide 1.5% by weight, pH 7.5, at 10 rad/sec) | Storage elastic modulus G′ (Pa) (mean: N = 3) ([2]; peptide 2.0% by weight, pH 7.5, at 10 rad/sec) |
| --- | --- | --- | --- | --- | --- | --- | --- | --- | --- | --- | --- | --- | --- | --- | --- | --- | --- |
| IEIKIEIKIEIKI [Peptide No. 2] | no significant difference | no significant difference | smaller amount of the solution applied until hemostasis | evidently resulted in a shorter hemostasis completion time | 349.0 | 2,309 Pa | – | – | – | – | – | – | – | – | – | – | – |
| RADARADARADARADA [Peptide No. 1] | smaller amount of the solution applied until hemostasis | tendencies of a shorter hemostasis completion time | – | – | – | – | smaller amount of the solution applied until hemostasis | evidently resulted in a shorter hemostasis completion time | 30 | 75 | 141 | 503 | – | – | – | – | – |
| RLDLRLALRLDLR (Ac-RLDLRLALRLDLR-NH2) [Peptide No. 3, self-assembling peptide, solution in purified water] | – | – | – | – | – | – | – | – | – | – | – | – | succeeded in hemostasis | failed in hemostasis | 75 | 239 | 439 |
